Where a name gives a salt, the structure may show the parent alone.
biological target: T1, ACAT (Oryctolagus cuniculus, UniProt G1SFD9); experiment: ACAT enzyme inhibitory activity of rabbit intestinal mucosa; assay type: biochemical; conditions: rabbit intestinal mucosa microsome, [1-14C] oleoyl CoA, 37° C., pH 7.4
T1 construct: from tissue; host or cells: domestic rabbit intestinal mucosa, microsome fraction (105,000×g precipitate)
T1 sequence (G1SFD9 1-524): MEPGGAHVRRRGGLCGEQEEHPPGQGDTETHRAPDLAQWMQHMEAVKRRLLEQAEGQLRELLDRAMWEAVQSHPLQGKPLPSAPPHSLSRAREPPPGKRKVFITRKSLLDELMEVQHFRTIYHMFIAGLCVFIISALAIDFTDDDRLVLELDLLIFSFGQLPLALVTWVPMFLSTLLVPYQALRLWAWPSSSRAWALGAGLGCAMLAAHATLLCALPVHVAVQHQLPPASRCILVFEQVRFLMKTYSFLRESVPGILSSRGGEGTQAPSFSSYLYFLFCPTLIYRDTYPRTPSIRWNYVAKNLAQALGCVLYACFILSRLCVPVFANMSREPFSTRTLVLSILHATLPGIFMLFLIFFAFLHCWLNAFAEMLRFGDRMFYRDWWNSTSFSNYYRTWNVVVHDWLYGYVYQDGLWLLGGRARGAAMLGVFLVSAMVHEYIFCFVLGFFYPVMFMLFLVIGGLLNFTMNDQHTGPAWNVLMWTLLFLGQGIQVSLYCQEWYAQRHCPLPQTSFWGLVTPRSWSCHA
Procedure: Measurement of ACAT enzyme inhibitory activity (measurement of ACAT enzyme inhibitory activity of rabbit intestinal mucosa)
Preparation of a domestic rabbit intestinal mucosa microsome and measurement of the ACAT enzyme activity were conducted by slightly modifying a method established by Salone and Field (see Biochemica et Biophysica, vol. 712, 557 (1982).
The supernatant was further centrifuged at 105,000×g and a temperature of 4° C. for one hour to provide a precipitate. The precipitate was resuspended in the buffer A to provide a microsome fraction.
A 1 %v/v dimethylsulfoxide solution of each specimen compound in a predetermined concentration was added to the buffer A containing 43 μM serum albumin and 0.5 mg/ml microsome fraction, and the mixture was heated at 37° C. for 5 min.
Then, 43 μM oleoyl CoA containing [1^-14 C] oleoyl CoA (3.7 kB) was added thereto, the mixture was heated at 37° C. for 10 rain, and chloroform/methanol (2/1) containing 10 mg/ml cholesteryl oleate was added thereto to terminate the reaction.
0.111 kB of [^3 H] cholesteryl oleate and 1N hydrochloric acid were added thereto, and the mixture was stirred. The cholesteryl oleate extracted into the chloroform layer was isolated by thin-layer chromatography, and the radioactivity was measured as the ACAT activity.

| SMILES | IC50 [nM] |
| --- | --- |
| CCCCCCCCCCC(C)(C)C(=O)Nc1c(C)c([N+](=O)[O-])c(C)c2c1OC(C)(C)C2 [Ex. 6, N-(2,2,4,6-tetramethyl-5-nitro-2,3-dihydrobenzofuran-7-yl)-2,2-dimethyldodecaneamide] | 19 |
| CCCCCCCCCCNc1ccc(C(=O)Nc2c(C)cc(C)c3c2OC(C)(C)C3)cc1 [Ex. 33] | 110 |
| Cc1ccc2c(c1NC(=O)C(C)(C)CCCCOc1ccc(C(C)(C)C)cc1)OC(C)(C)C2 [Ex. 37] | 340 |
| CCCCCCCCC(C)(C)C(=O)Nc1c(C)cc(C)c2c1OC(C)(C)C2 [Ex. 39] | 72 |
| CCCc1ccc(CCCC(C)(C)C(=O)Nc2c(C)cc(C)c3c2OC(C)(C)C3)cc1 [Ex. 44] | 66 |
| Cc1cc(C)c(NC(=O)C(C)(C)CCCc2ccc(CC(C)C)cc2)c2c1CC(C)(C)O2 [Ex. 45] | 28 |
| Cc1cc(C)c(NC(=O)C(C)(C)CCCCCOCCc2ccccc2)c2c1CC(C)(C)O2 [Ex. 54] | 100 |
| COCCCCCCC(C)(C)C(=O)Nc1c(C)cc(C)c2c1OC(C)(C)C2 [Ex. 56] | 330 |
| Cc1ccc(OCCCCCC(C)(C)C(=O)Nc2c(C)cc(C)c3c2OC(C)(C)C3)cc1 [Ex. 62] | 64 |
| Cc1cc(C)c(NC(=O)C(C)(C)CCCCCOc2ccc(N)cc2)c2c1CC(C)(C)O2 [Ex. 66] | 460 |
| Cc1cc(C)c(NC(=O)C(C)(C)CCCCCOc2ccc(N(C)C)cc2)c2c1CC(C)(C)O2 [Ex. 67] | 190 |
| Cc1cc(C)c(NC(=O)C(C)(C)CCCCCCOc2ccc(F)cc2)c2c1CC(C)(C)O2 [Ex. 70] | 110 |
| CCCCCCCCCCCCCCCC(=O)Nc1c(C)cc(C)c2c1OC(C)(C)C2 [Ex. 81] | 260 |

Further lines, results first:

| IC50 [nM] | SMILES |
| --- | --- |
| 910 | Cc1ccc(OCCCCCC(C)(C)C(=O)Nc2c(C)cc(C)c3c2OC(C)(C)C3)c(C)c1 [Ex. 64] |
| 830 | CCCCCCCCCCC1(C(=O)Nc2cccc3nc(-c4cccnc4)oc23)CCCC1 [Ex. 2, N-[2-(3-pyridyl)benzoxazol-7-yl]-1-decylcyclopentanecarboxamide] |
| 500 | CCCCCCCCCCC1(C(=O)Nc2cccc3nc(-c4ccccc4)oc23)CCCC1 [Ex. 18] |
| 400 | Cc1cc2nc(-c3ccccc3)oc2c(NC(=O)NCC2(c3ccccc3)CCCC2)c1C [Ex. 13] |
| 350 | Cc1cc(C)c(NC(=O)C(C)(C)CCCCCCN2CCN(Cc3ccccc3)CC2)c2c1CC(C)(C)O2 [Ex. 79] |
| 340 | Cc1ccc2c(c1NC(=O)NCC1(c3ccccc3)CCCC1)OC(C)(C)C2 [Ex. 3] |
| 340 | Cc1cc(C)c(NC(=O)C(C)(C)CCCCCCNCc2ccc(Cl)cc2)c2c1CC(C)(C)O2 [Ex. 73 (HCl salt)] |
| 330 | Cc1cc(C)c(NC(=O)C(C)(C)CCCCCCN(C)Cc2ccccc2)c2c1CC(C)(C)O2 [Ex. 74 (HCl salt)] |
| 330 | Cc1cc(C)c(NC(=O)C(C)(C)CCCCN2CCN(Cc3ccccc3)CC2)c2c1CC(C)(C)O2 [Ex. 78] |
| 230 | Cc1cc(C)c(NC(=O)C(C)(C)CCCCCOc2ccc([N+](=O)[O-])cc2)c2c1CC(C)(C)O2 [Ex. 10, N-(2,2,4,6-tetramethyl-2,3-dihydrobenzofuran-7-yl)-[2,2-dimethyl-7-(4-nitrophenyloxy)]heptaneamide] |
| 220 | CCCCCCCCCCCCNC(=O)Nc1c(C)ccc2c1OC(C)(C)C2 [Ex. 23] |
| 220 | Cc1cc(C)c(NC(=O)C(C)(C)CCCCCOc2ccc(Cl)cc2Cl)c2c1CC(C)(C)O2 [Ex. 63] |
| 190 | Cc1cc(C)c(NC(=O)C(C)(C)CCCCOCCCC(C)C)c2c1CC(C)(C)O2 [Ex. 47] |
| 180 | Cc1cc(C)c(NC(=O)C(C)(C)CCCCCCBr)c2c1CC(C)(C)O2 [Ex. 38] |
| 170 | Cc1cc(C)c(NC(=O)C(C)(C)CCCCCOCCOC(C)C)c2c1CC(C)(C)O2 [Ex. 55] |
| 170 | Cc1cc(C)c(NC(=O)C(C)(C)CCCCOc2ccc(C(C)(C)C)cc2)c2c1CC(C)(C)O2 [Ex. 58] |
| 130 | Cc1cc(C)c(NC(=O)C(C)(C)CCCCCCOc2ccc(N(C)C)cc2)c2c1CC(C)(C)O2 [Ex. 71] |
| 120 | Cc1cc(C)c(NC(=O)C(C)(C)CCCCCCN(C)Cc2ccc(Cl)cc2)c2c1CC(C)(C)O2 [Ex. 75] |
| 110 | CCCCCCCCCCOc1ccc(C(=O)CC(=O)Nc2c(C)cc(C)c3c2OC(C)(C)C3)cc1 [Ex. 88, N-(2,2,4,6-tetramethyl-2,3-dihydrobenzofuran-7-yl)3-(4-decyloxyphenyl)-3-oxpropaneamide] |
| 86 | Cc1cc(C)c(NC(=O)C(C)(C)CCCCCOc2ccc(C(C)C)cc2)c2c1CC(C)(C)O2 [Ex. 65] |
| 72 | CCCCCCCCCCCCCCCC(=O)Nc1c(C)c(Cl)c(C)c2c1OC(C)(C)C2 [Ex. 83] |
| 57 | Cc1cc(C)c(NC(=O)C(C)(C)CCCCCCOCCCC(C)C)c2c1CC(C)(C)O2 [Ex. 48] |
| 45 | Cc1cc(C)c(NC(=O)C(C)(C)CCCCCCOCC(C)(C)C)c2c1CC(C)(C)O2 [Ex. 50] |
| 40 | CCCCCCCCCCOc1ccc(C(=O)C(C)(C)C(=O)Nc2c(C)cc(C)c3c2OC(C)(C)C3)cc1 [Ex. 80] |
| 34 | CCCCCCOc1ccc(CCCC(C)(C)C(=O)Nc2c(C)cc(C)c3c2OC(C)(C)C3)cc1 [Ex. 46] |

test system: serum cholesterol; experiment: percentage change of serum cholesterol in cholesterol-fed rats; assay type: in vivo, Male Wistar rats; conditions: Rattus norvegicus, 72 h; 1 mg/kg oral, once a day for three days, cholesterol-enriched feed, vs control
Excerpt: Measurement of percentage change of serum cholesterol
Male Wistar rats having a weight of 200 g were preliminarily bred for 7 days while they freely ingested a normal feed (CE-2 manufactured by CLEA Japan Inc.).
Thereafter, they were bred for 3 days while they freely ingested a feed enriched with cholesterol and fat (2% cholesterol, 1% cholic acid, 20% casein, 45% fine granulated sugar, 12% coconut oil, 4% KC flock, 1% mixed vitamin, 7% mixed mineral and 8% dried fish powder; a product of CLEA Japan Inc.). During the cholesterol loading period, the test compound of the present invention was orally administered to the above test animals at a dose of 0.1 to 10 mg per kg of the weight once a day for three days. On the other hand, the excipient alone was administered to the control animals.
After 8 hrs from the last administration, the test animals were fasted. 16 hr after the initiation of the fasting, these test animals were slaughtered. The serum cholesterol level was measured for each animal.
The results were compared with those of the control and are given as percentage serum cholesterol (%) in Table 3.
Percentage change of serum cholesterol (%)={(A-B)/B}×100
wherein A represents the total cholesterol level of serum in the group of rats to which the test compound was administered; and B represents the total cholesterol level of serum in the control group of rats.

| SMILES | change in vivo at 1 mg/kg [%] |
| --- | --- |
| CCCCCCCCCCC(C)(C)C(=O)Nc1c(C)cc(C)c2c1OC(C)(C)C2 [Ex. 5, N-(2,2,4,6-tetramethyl-2,3-dihydrobenzofuran-7-yl)-2,2-dimethyldodecaneamide] | -61 |
| CCCCCCCCCCC(C)(C)C(=O)Nc1c(C)c(N(C)C)c(C)c2c1OC(C)(C)C2 [Ex. 8, N-(5-dimethylamino-2,2,4,6-tetramethyl-2,3-dihydrobenzofuran-7-yl)-2,2-dimethyldodecaneamide] | -71 |
| CCCOCCCCCCOc1ccc(C(=O)Nc2c(C)cc(C)c3c2OC(C)(C)C3)cc1 [Ex. 29] | -23 |
| Cc1cc(C)c(NC(=O)C(C)(C)CCCCCc2ccccc2)c2c1CC(C)(C)O2 [Ex. 42] | -44 |
| Cc1cc(C)c(NC(=O)C(C)(C)CCCc2ccc(CC(C)C)cc2)c2c1CC(C)(C)O2 [Ex. 45] | -58 |
| Cc1cc(C)c(NC(=O)C(C)(C)CCCCCCOCC(C)C)c2c1CC(C)(C)O2 [Ex. 49] | -50 |
| Cc1cc(C)c(NC(=O)C(C)(C)CCCCOc2ccc(Cl)cc2)c2c1CC(C)(C)O2 [Ex. 59] | -43 |
| Cc1cc(C)c(NC(=O)C(C)(C)CCCCCOc2ccc(Cl)cc2)c2c1CC(C)(C)O2 [Ex. 61] | -64 |
| Cc1ccc(OCCCCCC(C)(C)C(=O)Nc2c(C)cc(C)c3c2OC(C)(C)C3)cc1 [Ex. 62] | -18 |
| Cc1cc(C)c(NC(=O)C(C)(C)CCCCCCOc2ccc(Cl)cc2)c2c1CC(C)(C)O2 [Ex. 68] | -75 |
| Cc1cc(C)c(NC(=O)C(C)(C)CCCCCCOc2ccc(N(C)C)cc2)c2c1CC(C)(C)O2 [Ex. 71] | -49 |

same assay, conditions: Rattus norvegicus, 72 h; 10 mg/kg oral, once a day for three days, cholesterol-enriched feed, vs control

| SMILES | change in vivo at 10 mg/kg [%] |
| --- | --- |
| CCCCCCCCCCC1(C(=O)Nc2c(C)c(C)cc3nc(-c4ccccc4)oc23)CCCC1 [Ex. 20] | -46 |
| CCCCCCCCCCC1(C(=O)Nc2c(C)ccc3c2OC(C)(C)C3)CCCC1 [Ex. 36] | -52 |
| Cc1cc(C)c(NC(=O)C(C)(C)CCCCCCOCC(C)(C)C)c2c1CC(C)(C)O2 [Ex. 50] | -54 |
| Cc1cc(C)c(NC(=O)C(C)(C)CCCCOCc2ccccc2)c2c1CC(C)(C)O2 [Ex. 53] | -50 |
| Cc1cc(C)c(NC(=O)C(C)(C)CCCCOc2ccc(C(C)(C)C)cc2)c2c1CC(C)(C)O2 [Ex. 58] | -27 |
| Cc1cc(C)c(NC(=O)C(C)(C)CCCCN2CCN(Cc3ccccc3)CC2)c2c1CC(C)(C)O2 [Ex. 78] | -43 |
